target: T1, human ERα (Homo sapiens, UniProt P03372); experiment: Fluorescence polarization displacement assay with FITC-estradiol; format: binding; conditions: fluorescence polarization screen of twelve compounds
T1 sequence (P03372 1-595): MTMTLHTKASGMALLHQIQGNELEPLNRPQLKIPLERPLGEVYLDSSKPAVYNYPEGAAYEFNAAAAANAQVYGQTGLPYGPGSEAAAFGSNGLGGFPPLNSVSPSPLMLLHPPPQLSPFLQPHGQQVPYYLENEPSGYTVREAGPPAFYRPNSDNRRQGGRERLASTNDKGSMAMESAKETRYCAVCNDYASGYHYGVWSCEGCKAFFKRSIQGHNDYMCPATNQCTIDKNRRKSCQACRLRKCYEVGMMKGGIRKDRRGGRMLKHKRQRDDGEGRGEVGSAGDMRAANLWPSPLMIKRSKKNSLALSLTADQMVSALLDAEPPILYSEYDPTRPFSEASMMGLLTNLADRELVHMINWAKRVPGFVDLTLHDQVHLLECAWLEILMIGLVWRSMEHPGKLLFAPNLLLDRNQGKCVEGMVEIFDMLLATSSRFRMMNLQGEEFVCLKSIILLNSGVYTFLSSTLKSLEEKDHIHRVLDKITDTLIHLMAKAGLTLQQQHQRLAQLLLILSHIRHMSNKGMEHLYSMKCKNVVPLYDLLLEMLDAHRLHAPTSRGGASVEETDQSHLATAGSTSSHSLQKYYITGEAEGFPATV

| Structure (SMILES) | Affinity for ERα at concentrations as high as 1 μM (in words) |
| --- | --- |
| C[C@@H](CCO)C1=CC[C@H]2[C@@H]3CCc4cc(O)ccc4[C@H]3CC[C@]12C [Compound 11, (20S) 3-Hydroxy-19,24-Dinorchola-1,3,5(10),16-tetraen-23-ol] | significant affinity |
| CCCOC(=O)C1CC[C@H]2[C@@H]3CCc4cc(O)ccc4[C@H]3CC[C@]12C (stereo partly drawn) [Compound 4, n-Propyl 3-hydroxyestra-1,3,5(10)-triene-17-carboxylate] | significant affinity |
| CC[C@H](C)C1=CC[C@H]2[C@@H]3CCc4cc(O)ccc4[C@H]3CC[C@]12C [Compound 7, (20S) 3-Hydroxy-19,24-dinorchola-1,3,5(10),16-tetraene] | significant affinity |
| OC[C@H]1CCC[C@@H](c2ccc(O)cc2)CC1 (relative stereo) [Compound 18, cis-1-Hydroxymethyl-4-(4′-hydroxyphenyl)-cycloheptane] | significant affinity |
| CC1C[C@H](C)C2(CC[C@H]3[C@@H]4CCc5cc(O)ccc5[C@H]4CC[C@@]32C)O1 (stereo partly drawn) [Compound 13, 17,23-Epoxy-3-hydroxy-19-norchola-1,3,5(10)-triene] | significant affinity |

target: ERβ (Homo sapiens, UniProt Q92731); experiment: Cell-based ERβ luciferase reporter luminescence assay, agonist mode; conditions: read-out: ERβ agonist IC50; luciferase reporter cells, 22 h, duplicate
Sequence (Q92731 whole entry): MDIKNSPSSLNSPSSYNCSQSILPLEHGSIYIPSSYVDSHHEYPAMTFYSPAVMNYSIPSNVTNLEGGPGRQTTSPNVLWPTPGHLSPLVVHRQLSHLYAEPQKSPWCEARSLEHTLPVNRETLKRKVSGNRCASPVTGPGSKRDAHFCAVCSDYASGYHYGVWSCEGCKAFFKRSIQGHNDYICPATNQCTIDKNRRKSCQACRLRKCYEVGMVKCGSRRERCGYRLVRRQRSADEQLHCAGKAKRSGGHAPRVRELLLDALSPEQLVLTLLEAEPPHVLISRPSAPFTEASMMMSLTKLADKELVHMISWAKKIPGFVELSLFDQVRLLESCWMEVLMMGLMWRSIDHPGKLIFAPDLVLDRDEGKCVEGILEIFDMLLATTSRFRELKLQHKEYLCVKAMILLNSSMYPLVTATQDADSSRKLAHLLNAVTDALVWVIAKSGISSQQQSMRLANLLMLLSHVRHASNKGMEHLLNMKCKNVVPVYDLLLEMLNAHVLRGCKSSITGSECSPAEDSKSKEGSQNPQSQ

| Structure (SMILES) | IC50 [nM] |
| --- | --- |
| OC[C@H]1CCC[C@@H](c2ccc(O)cc2)CC1 (relative stereo) [Compound 18, cis-1-Hydroxymethyl-4-(4′-hydroxyphenyl)-cycloheptane] | 5.4 ± 0.3 |
